# Reference: patent publication US20150148311A1, “NON-SYSTEMIC TGR5 AGONISTS” (Ardelyx, Inc., priority 2011, published 2015)
# Legend:
# total (t) GLP-1 = experiment: Time course of in vivo induction of total GLP-1; conditions: C57BL/6 male mice, 30 mg/kg oral, 4, 8, 12 and 16 h
# Method: (§1) C57BL/6 male mice on regular chow received an oral dose of vehicle (2% DMSO in 0.4% hydroxypropyl methylcellulose) or examples 176 or 178 (at 30 mg/kg). Food was removed prior to/or at the time of dosing: 4, 8, 12, and 16 h groups fasted for 7, 8, 12 and 16 h, respectively. At the appropriate time after dosing, mice were heavily anesthetized with isoflurane, and blood was collected from the left ventricle of the heart and processed to plasma as described in Example 293 for measurement of total (t) GLP-1 and, additionally, total (t)PYY (N45ZA-1; Meso Scales Discovery, Gaithersburg Md.).
# CD-1 female mice = experiment: In vivo measurement of CCK-mediated gallbladder emptying (egg yolk); conditions: fasted ~16 h, oral 30 mg/kg (devazepide 1 mg/kg) 1 h before egg yolk, gallbladder weighed 15 min later (FIG. 1)
# Method: CD-1 female mice on regular chow had food removed (to prevent gallbladder emptying) in the late evening. The next morning (˜16 h later), groups of mice were dosed orally with vehicle (10% hydroxypropyl-β-cyclodextrin; 2 groups), devazepide in water (1 mg/kg; […]. One hour later, 1 group of vehicle-treated mice was dosed orally with saline, and all other groups were dosed orally with lyophilized egg yolk [0.75 mL; 30% (wt/vol) reconstituted in saline for induction of CCK-mediated gallbladder emptying]. Fifteen minutes later, mice were heavily anesthetized with isoflurane, the peritoneal cavity was opened and gallbladders (with contents) were carefully excised and weighed.
# C57BL/6 male mice = experiment: In vivo gallbladder measurement (weight) 16 hours post-dose; conditions: 30 mg/kg
# [1] = Compound concentration in gall bladder, LC-MS/MS, 8 h post dose; format: in vivo; conditions: 30 mg/kg
# How it was run: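 Gallbladder with its contents excised from isoflurane-anesthetized mice 8 h after dosing and homogenized in water. Homogenate diluted 1:5, precipitated with acetonitrile and measured by LC-MS/MS. Levels interpolated from per-compound standard curves in vehicle-treated gallbladder homogenate.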
# total (t)PYY = experiment: Time course of in vivo induction of total PYY; conditions: C57BL/6 male mice, 30 mg/kg oral, 4, 8, 12 and 16 h
# Method: as §1
# [2] = Compound plasma concentration, LC-MS/MS, 8 h post dose; format: in vivo; conditions: 30 mg/kg
# How it was run: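 Blood was taken from the left ventricle 8 h after dosing, under isoflurane anesthesia, into EDTA tubes containing aprotinin and DPPIV inhibitor. Plasma was protein-precipitated with acetonitrile containing an internal standard, and supernatants were analyzed by LC-MS/MS against a plasma standard curve.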
# [3] = biological target: T1, endogenously expressed TGR5 in NCI H716 (Homo sapiens, UniProt Q8TDU6); experiment: Cell-based TGR5 assay, NCI-H716 cells endogenously expressing human TGR5, cAMP by HTRF; conditions: 30 min at 37 C, 22 nM to 50 μM, read-out: pEC50 endogenously expressed TGR5 in NCI H716 (converted)
# T1 construct: human caecum carcinoma cell line NCI-H716 which endogenously expresses human TGR5; endogenous in cells; host or cells: NCI-H716
# T1 sequence (Q8TDU6 1-330): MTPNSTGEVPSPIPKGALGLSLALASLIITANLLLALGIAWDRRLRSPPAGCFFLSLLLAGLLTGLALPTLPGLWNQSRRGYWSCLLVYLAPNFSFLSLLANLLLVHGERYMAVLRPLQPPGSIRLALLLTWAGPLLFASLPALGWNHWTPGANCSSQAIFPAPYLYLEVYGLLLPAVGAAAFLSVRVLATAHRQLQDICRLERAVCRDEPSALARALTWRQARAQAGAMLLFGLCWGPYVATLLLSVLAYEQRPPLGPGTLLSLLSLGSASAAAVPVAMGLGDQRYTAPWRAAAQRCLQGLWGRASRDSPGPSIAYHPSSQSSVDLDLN
# How it was run: (§2)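 cAMP HTRF read-out, converted to concentration via standard curve, after a 30 min, 37 °C compound exposure in HBSS with 10 mM HEPES pH 7.4 and 0.5 mM IBMX, compounds serially diluted 3-fold from 10 mM DMSO stock then 100-fold. Cells: stable human TGR5 HEK293, or NCI-H716 expressing TGR5 endogenously.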
# [4] = Compound concentration in gallbladder 16 hours post dose; format: in vivo; conditions: 30 mg/kg
# Method: Compound concentrations in the gall bladder were determined as follows: each mouse was heavily anesthetized with isoflurane, the peritoneal cavity was opened and the gallbladder, with its entire contents, was carefully excised. After harvest, gall bladders were homogenized in 100 μL water using a micro-homogenizer. Samples of homogenate were diluted 1:5 in water and precipitated with three volumes of neat acetonitrile. After centrifugation, supernatants were analyzed by LC-MS/MS. The level of test compound present in gall bladder samples was interpolated from a standard curve for each individual compound prepared in a matrix of gallbladder homogenate from vehicle treated animals.
# C57BL/6 male mice on regular chow had food removed (to prevent gallbladder emptying) and were dosed in the early evening with vehicle (2% DMSO in 0.4% hydroxypropyl methylcellulose) or 30 mg/kg of examples 176, 177, or 178 formulated in vehicle. The next morning (˜16 h post-dose), mice were heavily anesthetized with isoflurane, the peritoneal cavity was opened and gallbladders (with contents) were carefully excised and weighed. Compound levels in gallbladder were analyzed as described in Example 293.
# human TGR5 = biological target: T2, human TGR5 (Homo sapiens, UniProt Q8TDU6); experiment: Cell-based TGR5 assay, HEK293 cells stably expressing human TGR5, cAMP by HTRF; conditions: HEK293 cells stably expressing human TGR5, 30 min at 37 C, 0.05 nM to 10 μM, read-out: pEC50 Human TGR5 (converted)
# T2 construct: expressed in transfected cells
# T2 sequence (Q8TDU6 1-330): T1 sequence (Q8TDU6 1-330)
# How it was run: as §2
# [5] = mice below LLOQ / mice in group
SMILES,induction of tGLP-1 levels following a single oral dose (total (t) GLP-1),inhibition of CCK-mediated gallbladder emptying (CD-1 female mice),effect on gallbladder weight/body weight (C57BL/6 male mice),"Number of Mice with Gallbladder Concentration < LLOQ [1, 5]","concentration at 8 h ([1]; male, C57BL/6, mouse, with contents, mice, gallbladder homogenate, read-out: Mean Example Gallbladder Concentration) [nM]",induction of tPYY levels following a single oral dose (total (t)PYY),"Number of Mice with Plasma Concentration < LLOQ [2, 5]","concentration at 8 h ([2]; male, C57BL/6, mouse, mice, plasma, read-out: Mean Example Plasma Concentration) [ng/mL]",EC50 [3] [nM],"Number of Mice with Gallbladder Concentration < LLOQ [4, 5]","concentration at 16 h ([4]; male, C57BL/6, mouse, gallbladder (homogenate, with contents), mice, gallbladder, read-out: Mean Example Gallbladder Concentration) [nM]",EC50 (human TGR5) [nM]
"O=C(NC[C@H](O)[C@@H](O)[C@H](O)[C@H](O)CO)c1ccc(COc2cc(Cl)c(CN3CSC[C@H]3C(=O)N3CCN(C4CC4)c4ccccc43)cc2Cl)cc1 [Example 176, 4-(2,5-dichloro-4-{[(4R)-4-[(4-cyclopropyl-1,2,3,4-tetrahydroquinoxalin-1-yl)carbonyl]-1,3-thiazolidin-3-yl]methyl}phenoxymethyl)-N-[(2S,3R,4R,5R)-2,3,4,5,6-pentahydroxyhexyl]benzamide]",sustained induction,did not inhibit,no significant effect,0/8,100,sustained induction,8/8,< 2,,,,
"CN1C(=O)[C@@H](NC(=O)c2cc3ccccc3[nH]2)N=C(c2ccccc2)c2ccccc21 [devazepide, reference compound]",,did,,,,,,,,,,
"O=C(N1CCCc2cccnc21)C1(OCc2cc(Cl)ccc2Cl)CC1 [Example 85, 1-([1-[(2,5-dichlorophenyl)methoxy]cyclopropyl]carbonyl)-1,2,3,4-tetrahydro-1,8-naphthyridine]",,,,,,,,,1260 to 50100,0/6,200,126 to 1000
